# According to ChEMBL document CHEMBL1649077, “Synthesis and biological evaluation of aryl-phospho-indole as novel HIV-1 non-nucleoside reverse transcriptase inhibitors” (J Med Chem, 2011):
# How the values were obtained:
# [1] = Antiviral activity against wild type HIV1 BH10 infected human MT4 cells assessed as inhibition of virus-induced cytopathogenicity; type: functional, cell-based, Human immunodeficiency virus type 1 BH10; conditions: Human immunodeficiency virus 1, MT4
# [2] = Antiviral activity against wild type HIV1 BH10 with reverse transcriptase K103N/Y181C double mutant infected human MT4 cells assessed as inhibition of virus-induced cytopathogenicity; type: functional, cell-based, Human immunodeficiency virus type 1 BH10; conditions: Human immunodeficiency virus 1, MT4
# [3] = Antiviral activity against wild type HIV1 BH10 with reverse transcriptase K103N single mutant infected human MT4 cells assessed as inhibition of virus-induced cytopathogenicity; type: functional, cell-based, Human immunodeficiency virus type 1 BH10; conditions: Human immunodeficiency virus 1, MT4
# [4] = Antiviral activity against wild type HIV1 BH10 with reverse transcriptase Y181C single mutant infected human MT4 cells assessed as inhibition of virus-induced cytopathogenicity; type: functional, cell-based, Human immunodeficiency virus type 1 BH10; conditions: Human immunodeficiency virus 1, MT4
# [5] = Metabolic stability of the compound in dog hepatocytes assessed as compound remaining after 4 hrs; type: ADME, cell-based, Canis lupus familiaris, Hepatocyte; conditions: read-out: Stability
# [6] = Metabolic stability of the compound in human hepatocytes assessed as compound remaining after 4 hrs; type: ADME, cell-based, Hepatocyte; conditions: read-out: Stability
# [7] = Half life in rat at 5 mg/kg, po; type: ADME, organism-based; set-up: dose 5 mg/kg, route oral; conditions: in vivo
# [8] = Metabolic stability of the compound in monkey hepatocytes assessed as compound remaining after 4 hrs; type: ADME, cell-based, Macaca mulatta, Hepatocyte; conditions: rhesus monkey, read-out: Stability
# [9] = Clearance in rat at 5 mg/kg, po; type: ADME, organism-based; set-up: dose 5 mg/kg, route oral; conditions: in vivo
# [10] = Oral bioavailability in rat at 5 mg/kg; type: ADME, organism-based; conditions: in vivo
# [11] = Metabolic stability of the compound in rat hepatocytes assessed as compound remaining after 4 hrs; type: ADME, cell-based, Hepatocyte; conditions: read-out: Stability
Structure (SMILES),EC50 [1] [nM],EC50 [2] [nM],EC50 [3] [nM],EC50 [4] [nM],remaining at 4 h [5] [%],remaining at 4 h [6] [%],half-life [7] [h],remaining at 4 h [8] [%],CL/F [9] [mL/min/kg],bioavailability [10] [%],remaining at 4 h [11] [%]
NC(=O)c1[nH]c2ccc(Cl)cc2c1P(=O)(c1ccccc1)c1ccccc1,> 1250,–,–,–,–,–,–,–,–,–,–
CN(C)P(=O)(c1ccccc1)c1c(C(N)=O)[nH]c2ccc(Cl)cc12 (stereo unspecified),13.9,> 1250,> 1250,467,–,–,–,–,–,–,–
NC(=O)c1[nH]c2ccc(Cl)cc2c1P(=O)(O)c1ccccc1,> 1250,–,–,–,–,–,–,–,–,–,–
NC(=O)c1[nH]c2ccc(Cl)cc2c1P(=O)(OCc1ccccc1)c1ccccc1 (stereo unspecified),33.7,> 1250,> 1250,> 1250,–,–,–,–,–,–,–
CCOP(=O)(c1ccccc1)c1c(C(N)=O)[nH]c2ccc(Cl)cc12 (stereo unspecified),1.2,> 1250,16.4,13.7,–,–,–,–,–,–,–
CP(=O)(c1ccccc1)c1c(C(N)=O)[nH]c2ccc(Cl)cc12 (stereo unspecified),0.8,> 1250,1380,266,–,–,–,–,–,–,–
COP(=O)(c1ccccc1)c1c(C(N)=O)[nH]c2ccc(Cl)cc12 (racemic),0.7,447,6.8,10.1,100,99,1.19,49,2.85,107,100
CO[P@](=O)(c1ccccc1)c1c(C(N)=O)[nH]c2ccc(Cl)cc12,0.1,137,1.2,3.6,–,–,–,–,–,–,–
CO[P@@](=O)(c1ccccc1)c1c(C(N)=O)[nH]c2ccc(Cl)cc12,182,> 1250,> 1250,> 1250,–,–,–,–,–,–,–
COP(=S)(c1ccccc1)c1c(C(N)=O)[nH]c2ccc(Cl)cc12 (stereo unspecified),0.4,> 1250,89.9,41.4,–,–,–,–,–,–,–
